Here are results for 4 compounds from patent US5071855A, “Pharmacologically active piperidinylimidazopyridine compounds” (Dompe Farmaceutici SpA, priority 1989, dated 1991).

Counter-ions that a name gives are not always drawn.

For data set [1], the system named is mortality induced by compound 48/80. The experiment in a line: Mortality inhibition by compound 48/80. The data set is classed as in vivo, Sprague Dawley Nos male rats. The note with it: ip; rat, i.p., 30 minutes before 2 mg/kg i.v. compound 48/80; observed 4 hours. As to the method:
MORTALITY INHIBITION BY COMPOUND 48/80
For evaluating the protection of the mortality induced by compound 48/80 administration the method described by C. J. E. Niemegeers et al. (Arch. Int. Pharmacodyn, 234,164,1978) was followed.
Sprague Dawley Nos male rats (Nossan, Correzzana, Milano) weighing 140 to 150 g, divided into groups of 10 animals each, on an empty stomach for 24 hours with water "ad libitum", were kept in cages with a grid floor, and treated intravenously with 2 mg/kg of compound 48/80 (1 ml/rat).
The animals were kept under observation for 4 hours taking note of their mortality. The results were expressed as the number of animals dead with respect to the number of treated animals. Compounds under examination or the carrier were administered 30 minutes before administration of compound 48/80 by intraperitoneal route, dissolved in H2 O (5 ml/kg) or suspended in 0.5% carboxymethylcellulose. The experimental data were submitted to the variance analysis and to subsequent multiple comparisons according to Dunnet (D. J. Finney, in "Statistical Methods in Biological assay", Ed. L. Griffin and Co. Ltd., pag. 152,1957, Edition Ames Iowa, 1971).

For data set [2], the system named is mortality induced by histamine. The experiment in a line: Effect on the mortality induced by histamine. It counts as in vivo, male albino guinea pigs (Dunkin-Hartley). The note with it: Cavia porcellus, po; guinea pig, p.o., 60 minutes before 1.25 mg/kg i.v. histamine dihydrochloride; 50% inhibition of mortality; read-out: Mortality induced by hystamine ED50 p.o. As to the method: EFFECT ON THE MORTALITY INDUCED BY HISTAMINE
The method described by Romer D. et al. (Med. Welt. 17,791,1966) was followed and the tests were carried out on male albino guinea pigs (Dunkin-Hartley), weighing 350 to 450 g which were kept in cages with a grid floor, on an empty stomach for 24 hours with water ad libitum. The compounds under examination have been orally administered to the animals, dissolved in 0.5% carboxymethylcellulose, 60 minutes before intravenous administration of 1.25 mg/kg of histamine dihydrochloride in saline solution. In the control animals, treated with carboxymethylcellulose, the intravenous administration of histamine dihydrochloride induced a 100% mortality.
It has been evaluated ED50, which corresponds to the amount of the compound able inhibit to 50% the mortality induced by histamine: estimation of ED50 has been made applying the `probit` method (Finney D. J. "Statistical method in biological assay", pg 512,1957).

A short description of data set [3]: Evaluation of the lethal dose50 (LD50), acute toxicity. The note with it: in vivo, ip; mouse, 14 days; probit method. As to the method:
EVALUATION OF THE LETHAL DOSE50 (LD50)
Swiss Nos (Nossau, Correzzana, Milano) mice, weighing 18 to 20 g each, on an empty stomach for 18 hours with water "ad libitum" and kept in cages with grid floor, were used. The animals, divided into groups of 10 animals each, (5M+5F) were treated intraperitoneally (10 ml/kg) with the compounds under examination dissolved in water or suspended in 0.5% carboxymethyl-cellulose. The animals were kept in the cages and the mortality occurred within the following 6 hours was noted down. At the expiring of the 6 hours the animals were allowed to eat up to the end of the experimentation which lasted 14 days. During this period all the toxic symptoms and the mortality occuring were noted.
The animals which died during the test period and those which were sacrificed at the end of the same, underwent autopsy for a macroscopic examination of their main organs. The experimental data were statistically compared with the X^2 method and LD50 was extrapolated by the `probit` method.

As for `CCOCCn1c(C2CCCN(C)C2)nc2cccnc21.O=C(O)/C=C/C(=O)O.O=C(O)/C=C/C(=O)O` (stereo not drawn) [Example 5, 3-(2-Ethoxyethyl)-2-(1-methylpiperidin-3-yl)-3H-imidazo [4,5-b] pyridine difumarate], the ED50 is 0.59 mg/kg in data set [1] and 0.05 mg/kg in data set [2]. Moreover, the LD50 at 336 h in data set [3] is less than 100 mg/kg.

For the compound `CCOCCn1c(C2CCN(C)CC2)nc2cccnc21` [Example 2, 3-(2-Ethoxyethyl)-2-(1-methylpiperidin-4-yl)-3H-imidazo [4,5-b] pyridine 1.5 fumarate], the ED50 is 0.34 mg/kg in data set [1] and 0.042 mg/kg in data set [2]. For the same compound, the LD50 at 336 h in data set [3] is 500 mg/kg.

In the case of `CN1CCCC(c2nc3cccnc3n2Cc2ccccc2)C1` (stereo not drawn) [Example 8, 3-Benzyl-2-(1-methylpiperidin-3-yl)-3H-imidazo [4,5-b] pyridine], in data set [2], the ED50 was determined as 0.078 mg/kg. In addition, the LD50 at 336 h in data set [3] is greater than 100 mg/kg.

Consider `CC(C)(C)c1ccc(C(O)CCCN2CCC(C(O)(c3ccccc3)c3ccccc3)CC2)cc1` (stereo not drawn) [Terfenadine, reference compound], for which the ED50 in data set [1] turned out to be 1.99 mg/kg.

As a reminder, the ED50 is the dose at which the effect has come halfway, by size or by number of responders. Usually LD50 stands for the dose expected to kill half of the subjects tested. A low value points to a more toxic substance.
